Results: patent US20250213527A1, “FORMULATIONS OF PSILOCYBIN ANALOGS AND METHODS OF USE” (priority 2021, published 2025)
“Also recorded” adds a separate entry of the source. Structures can show the parent of a compound that is named as a salt. Marks after values point to notes of the source that are not given here.

Assays:
[1] = Observation of isolated freeze dried solid; assay type: physicochemical; conditions: freeze dried citrate salt
Protocol: This gave an oil. Additional water was added until a solution was obtained. […] The obtained citrate salt was amorphous as shown by X-ray powder diffraction (XRPD) pattern in FIG. 37A.

[2] = Maturation in 12 different solvents with thermal cycling, XRPD; assay type: physicochemical; conditions: slurries cycled between room temperature and 50 °C (4 hours each) for 3 days
Protocol: The resulting slurries were subjected to maturation with thermal cycling between room temperature and 50° C. (4 hours at each condition) for 3 days. Solids were then analysed by XRPD.

[3] = Solubility in FaSSGF (Fasted State Simulated Gastric Fluid) at 37 °C; assay type: physicochemical; conditions: free base component, average n=2
Protocol: Preparation of solutions: Solubility tests in FaSSGF were carried out at 37° C. and in water at room temperature for 2 hour and 6 hour timepoints. 50 mg solid was added to 0.5 mL media and incubated on an orbital shaker for 6 hours. (For free base in water 20 mg samples were used). Slurry/solution was sampled at 2 and 6 hours and aliquots were filtered through 0.45 micron PTFE filters. The filtrate was diluted 500 fold with the appropriate (same) media and injected on to UPLC.
(For free base in water ≥40 mg·mL^−1). […] Results were calculated based on a standard calibration curve of appropriate free base. Values quoted are for the free base component of each salt and are average of two (n=2) determinations.

[4] = Psilocin stability in 0.1 M acid solutions with or without metal ions, 40 °C; assay type: physicochemical; conditions: up to 24 h
From the text: Ascorbic acid (AsA), acetic acid (AcA), tartaric acid (TA), fumaric acid (FA), citric acid (CA), malic acid (MA), benzenesulfonic acid (BSA), stearic acid (SA), sodium citrate dihydrate, monosodium phosphate hydrate, disodium phosphate were purchased from Sigma Aldrich. Aluminum (III) chloride (AlCl3) and iron (III) chloride (FeCl3) were purchased from Sigma Aldrich. Antioxidants, i.e., ethylenediaminetetraacetic acid (EDTA), ascorbic acid (AsA), L-cysteine (Cys), sodium metabisulfite (NamBiSO3) and propyl gallate (PG) were purchased from Sigma Aldrich. Hydroxypropyl-β-cyclodextrin (CAVASOL® W7 HP, CAVITRON® W7 HP7) and methyl-β-cyclodextrin (CAVASOL® W7 M) were provided by DuPont.
The following chromatographic conditions were used:
Diluent. The diluent used in the below studies was prepared as follows: 100 mL of acetonitrile (ACN) was mixed with 800 mL of water and 100 mL of 1.0 M citric acid and mixed well to prepare 1 L of diluent.
The stability of psilocin in 0.1 M solutions of various acids was tested.
Test solutions: To prepare the test solutions, 0.1 M solutions of AsA, AcA, TA, FA, CA, MA, BSA, and SA were prepared in DI water.

[5] = Psilocin stability in 0.1 M sodium citrate buffer at 4, 23 and 40 °C; assay type: physicochemical
Protocol: (§1) Preparation of 0.1 M sodium citrate buffer (pH 6.01): 2.427 g of sodium citrate dihydrate and 0.336 g of citric acid were dissolved in 80 ml of DI water. The pH was adjusted to 6.0 using a 1 M NaOH solution. The final volume was adjusted to 100 ml.

[6] = Psilocin stability comparison between sodium citrate and phosphate buffer, 40 °C; assay type: physicochemical; conditions: 0.1 M, 24 h
Protocol: The effect of buffer type and pH on the stability of psilocin was assessed.
as §1
Preparation of 0.1 M phosphate buffer (pH 6.0 and pH 7.5): Monosodium phosphate (0.339 g, 0.002 moles) and disodium phosphate (2.021 g, 0.014 moles) were dissolved in 80 ml water and the pH was adjusted as necessary using sodium hydroxide or phosphoric acid. The volume was adjusted to 100 ml using water.
Test solutions: Psilocin (1 mg/ml) was mixed with (i) 0.1 M sodium citrate buffer (pH 6.01), (ii) 0.1 M phosphate buffer (pH 6.0), and (iii) 0.1 M phosphate buffer (pH 7.5) in a 1:1 v/v ratio.

[7] = Long-term (up to 25 days) psilocin stability in citric acid solution and sodium citrate buffer; assay type: physicochemical; conditions: 0.1 M
Protocol: The long-term stability (up to 25 days) of psilocin in a citric acid solution (0.1 M, pH 1.60) and a sodium citrate buffer (0.1 M, pH 6.01) at 4C and 23° C. was assessed.
as §1
Test solutions: Psilocin (1 mg/ml), was mixed with (i) sodium citrate buffer (0.1 M, pH 6.01) and (ii) citric acid solution (0.1 M, pH 1.60) in 1:1 v/v. The samples were stored at 4° C. and 23° C., and aliquots were sampled at designated timepoints (days 0, 7, 17, and 25).

[8] = Psilocin stability with cyclodextrin complexes, 40 °C; conditions: 1% w/w cyclodextrin, up to 24 h
[9] = Psilocin stability in dilute citric acid solution at 4, 23 and 40 °C
[10] = Psilocin stability with antioxidants against metal induced degradation, 40 °C; conditions: 20 μM antioxidant, up to 24 h
[11] = Plasma pharmacokinetics and bioavailability in rats, oral gavage and intravenous (bolus); conditions: for Tmax: rat plasma, label = analyte, IAD = immediately after dosing
[12] = Brain tissue concentrations in rats after intravenous dosing
[13] = Group 3, IV, psilocybin dosed 2.8 mg/kg

With `CN(C)CCc1c[nH]c2cccc(O)c12` [Compound I-7e, Citrate Salt of 3-(2-(dimethylamino)ethyl)-1H-indol-4-ol] the “behaviour of isolated amorphous solid” value [1] was “hygroscopic and rapidly became sticky”.
For `CN(C)CCc1c[nH]c2cccc(O)c12` [Compound I-7c, Hemi-Fumarate Salt of 3-(2-(dimethylamino)ethyl)-1H-indol-4-ol], the “crystalline form by XRPD after maturation in 12 different solvents” value (from here on “crystalline form … in 12 different solvents”) [2] was “complex polymorphism with multiple crystalline patterns obtained” and the “Solubility FaSSGF 6 hours” value [3] was ≥ 52.25* mg/mL.
With `CN(C)CCc1c[nH]c2cccc(O)c12` [Compound I-7j, Benzoate Salt of 3-(2-(dimethylamino)ethyl)-1H-indol-4-ol] the “crystalline form … in 12 different solvents” value [2] was “retained their initial crystalline form; also recorded: the same pattern 1 by XRPD was observed” and the “Solubility FaSSGF 6 hours” value [3] was 9.79 mg/mL.
In the case of `CN(C)CCc1c[nH]c2cccc(O)c12` [Compound I-7b, tartrate salt of 3-(2-(dimethylamino)ethyl)-1H-indol-4-ol], the “crystalline form … in 12 different solvents” value [2] is reported as “retained their initial crystalline form”.
With `CN(C)CCc1c[nH]c2cccc(O)c12` [Compound I-7a, benzenesulfonate salt of 3-(2-(dimethylamino)ethyl)-1H-indol-4-ol] the “crystalline form … in 12 different solvents” value [2] was “retained their initial crystalline form (pattern 1)”.
In the case of `CN(C)CCc1c[nH]c2cccc(O)c12` [Compound I-7, 3-(2-(dimethylamino)ethyl)-1H-indol-4-ol], the “solution stability in 0.1 M acid solutions (solution-phase salts), with or without metal salts” value ([4]; all tested acids) is reported as “excellent stability”, the “solution stability of psilocin without acid” value [4] is reported as “nearly all psilocin being degraded within 24 hours” and the “solution stability without acid in presence of Fe3+ and Al3+ metal ions” value [4] is reported as “significant psilocin degradation”. The “effect of metal salts (Fe3+ and Al3+) in citrate buffer” value ([5]; 0.1 M sodium citrate buffer pH 6.01) was “no detrimental effects”, the “solution stability in non-citrate buffered solutions with Fe3+ and Al3+” value ([5]; 4, 23 and 40 °C) was “significant psilocin degradation” and the “solution stability without sodium citrate buffer” value ([5]; 4, 23 and 40 °C) was “nearly all psilocin being degraded by the 18 hour time point”. The “degradation of psilocin in 0.1 M sodium citrate buffer” value ([5]; 40 °C, up to 24 h) was 10-15%, the “solution stability in 0.1 M sodium citrate buffer” value ([5]; pH 6.01, 4 °C and room temperature, up to 24 h) was “greatly stabilized psilocin” and the “stability in phosphate buffer pH 6.0 versus pH 7.5” value [6] was “better stability than at pH 7.5”. The “long-term stability in citric acid solution” value ([7]; pH 1.60, 4 °C and 23 °C) was “only minimal degradation”, the “long-term stability in sodium citrate buffer, cold storage” value ([7]; pH 6.01, 4 °C) was “remained stable for up to 17 days” and the “long-term stability in sodium citrate buffer, room temperature” value ([7]; pH 6.01, 23 °C) was “degradation of psilocin began within a week”. The “stability with cyclodextrins against high temperature or metal induced degradation” value [8] was “cyclodextrins did not impart stability”, the “solution stability without citric acid” value ([9]; 4, 23 and 40 °C) was “nearly all psilocin being degraded by the 18 hour time point” and the “solution stability without citric acid in presence of Fe3+ and Al3+” value ([9]; 4, 23 and 40 °C) was “significant psilocin degradation”. For the same compound, the “solution stability with small quantities of citric acid (pH 3.2)” value ([9]; 4 °C and room temperature (23 °C), up to 24 h) was “greatly enhanced the stability of psilocin”, the “psilocin stabilization (% psilocin remaining) with small quantities of citric acid” value ([9]; 40 °C, 24 hour time point) was 30% and the “stability against metal salts with antioxidants (EDTA, ascorbic acid, L-cysteine, sodium metabisulfite, propyl gallate)” value [10] was “none of the antioxidants tested were able to provide stability”. The Tmax ([11]; Group 1, IV, psilocin + psilocin-d10 1 + 1 mg/kg) was “IAD”, the Tmax [11, 13] was “IAD” and the “onset, duration and variability of plasma exposure versus oral psilocybin” value ([11]; rats, oral) was “a faster onset, a shorter duration of effect, and less variability in drug exposure than oral psilocybin”.
With `CN(C)CCc1c[nH]c2cccc(OP(=O)(O)O)c12` [psilocybin, Psilocybin] the “brain concentrations of psilocybin versus plasma” value [12] was “brain concentrations of psilocybin are low”, the bioavailability ([11]; male, Sprague Dawley, rat, plasma, po, 14 mg/kg) was < 0.1% and the Tmax [11, 13] was “IAD”.
In the case of `[2H]C([2H])([2H])N(C([2H])([2H])[2H])C([2H])([2H])C([2H])([2H])c1c[nH]c2cccc(O)c12` [Compound I-3j, Benzoate Salt of 3-(2-(bis(methyl-d3)amino)ethyl-1,1,2,2-d4)-1H-indol-4-ol], the “crystalline form … in 12 different solvents” value [2] is reported as “retained their initial crystalline form (pattern 1)” and the “Solubility FaSSGF 6 hours” value [3] is reported as 12.79 mg/mL.
